Test: Intramolecular Friedel-Crafts arylation (C(vinyl)-C(aryl) bond) of vinyl cation from vinyl tosylate; [Li]+[B(C6F5)4]- 10 mol%, LiH 5 equiv
Conditions: 1,2-dichlorobenzene, 16.7 mM, 140.0 °C

SMILES: Cc1ccc(S(=O)(=O)N2CCc3c(Cl)cccc3C(=C3CCCCC3)c3ccccc32)cc1 [1 -> 2]
- ring closure, isolated yield (from Cc1ccc(S(=O)(=O)OC(=C2CCCCC2)c2ccccc2N(CCc2ccccc2Cl)S(=O)(=O)c2ccc(C)cc2)cc1, 8-membered ring, 18.0 h): 73%

SMILES: COc1ccc(CC2Cc3cc(OC)ccc3C(=C(C)C)c3ccccc3S2)cc1 (stereo not drawn) [28 -> 29a (NMR yield)]
- ring closure, isolated yield (from COc1ccc(CC(Cc2cccc(OC)c2)Sc2ccccc2C(OS(=O)(=O)c2ccc(C)cc2)=C(C)C)cc1, 8-membered ring): 25%

SMILES: CC(C)=C1c2ccccc2CCCN(S(=O)(=O)c2ccc(C)cc2)c2ccccc21 [SI-11 -> 6]
- ring closure, isolated yield (from CC(C)=C(OS(=O)(=O)c1ccc(C)cc1)c1ccccc1N(CCCc1ccccc1)S(=O)(=O)c1ccc(C)cc1, 9-membered ring, 36.0 h): 82%

SMILES: CC(C)=C1c2ccccc2CCSc2ccccc21 [SI-14 -> 8]
- ring closure, isolated yield (from CC(C)=C(OS(=O)(=O)c1ccc(C)cc1)c1ccccc1SCCc1ccccc1, 8-membered ring): 46%

SMILES: CC(C)=C1c2ccccc2CCN(S(=O)(=O)c2ccc(C)cc2)c2ccccc21 [SI-16 -> 5]
- ring closure, isolated yield (from CC(C)=C(OS(=O)(=O)c1ccc(C)cc1)c1ccccc1N(CCc1ccccc1)S(=O)(=O)c1ccc(C)cc1, 8-membered ring, 36.0 h): 56%

SMILES: CC(C)=C1c2ccccc2CCCc2ccccc21 [SI-20 -> 9]
- ring closure, isolated yield (from CC(C)=C(OS(=O)(=O)c1ccc(C)cc1)c1ccccc1CCCc1ccccc1, 8-membered ring): 81%

SMILES: Cc1ccc(S(=O)(=O)N2CCc3ccc(N(C)C)cc3C(=C3CCCCC3)c3ccccc32)cc1 [SI-24 -> 11]
- ring closure, isolated yield (from Cc1ccc(S(=O)(=O)OC(=C2CCCCC2)c2ccccc2N(CCc2ccc(N(C)C)cc2)S(=O)(=O)c2ccc(C)cc2)cc1, 8-membered ring): 62%

SMILES: COc1ccc2c(c1)C(=C1CCCCC1)c1ccccc1N(S(=O)(=O)c1ccc(C)cc1)CC2 [SI-27 -> 12]
- ring closure, isolated yield (from COc1ccc(CCN(c2ccccc2C(OS(=O)(=O)c2ccc(C)cc2)=C2CCCCC2)S(=O)(=O)c2ccc(C)cc2)cc1, 8-membered ring): 76%

SMILES: CC(C)=C1c2cc(O[Si](C)(C)C(C)(C)C)ccc2CCN(S(=O)(=O)c2ccc(C)cc2)c2ccccc21 [SI-33 -> 13]
- ring closure, isolated yield (from CC(C)=C(OS(=O)(=O)c1ccc(C)cc1)c1ccccc1N(CCc1ccc(O[Si](C)(C)C(C)(C)C)cc1)S(=O)(=O)c1ccc(C)cc1, 8-membered ring): 79%

SMILES: Cc1ccc(S(=O)(=O)N2CCc3ccc(Br)cc3C(=C3CCCC3)c3ccccc32)cc1 [SI-36 -> 15]
- ring closure, isolated yield (from Cc1ccc(S(=O)(=O)OC(=C2CCCC2)c2ccccc2N(CCc2ccc(Br)cc2)S(=O)(=O)c2ccc(C)cc2)cc1, 8-membered ring): 79%

SMILES: Cc1ccc(S(=O)(=O)N2CCc3sccc3C(=C3CCCCC3)c3ccccc32)cc1 [SI-38 -> 18]
- ring closure, isolated yield (from Cc1ccc(S(=O)(=O)OC(=C2CCCCC2)c2ccccc2N(CCc2cccs2)S(=O)(=O)c2ccc(C)cc2)cc1, 8-membered ring, 20.0 h): 73%

SMILES: CC(C)=C1c2ccccc2CCN(S(=O)(=O)c2ccc(C)cc2)c2sc3c(c21)CCCC3 [SI-42 -> 19 (120 C)]
- ring closure, isolated yield (from CC(C)=C(OS(=O)(=O)c1ccc(C)cc1)c1c(N(CCc2ccccc2)S(=O)(=O)c2ccc(C)cc2)sc2c1CCCC2, 8-membered ring, 20.0 h): 85%

SMILES: CC(C)=C1c2ccccc2CCCOc2ccccc21 [SI-45 -> 10]
- ring closure, isolated yield (from CC(C)=C(OS(=O)(=O)c1ccc(C)cc1)c1ccccc1CCCOc1ccccc1, 9-membered ring, 48.0 h): 65%

SMILES: COc1ccc2c(c1)N(S(=O)(=O)c1ccc(C)cc1)CCc1ccccc1C2=C(C)C [SI-46 -> 16]
- ring closure, isolated yield (from COc1ccc(C(OS(=O)(=O)c2ccc(C)cc2)=C(C)C)c(N(CCc2ccccc2)S(=O)(=O)c2ccc(C)cc2)c1, 8-membered ring, 24.0 h): 78%

SMILES: Cc1ccc(S(=O)(=O)N2CCCCc3ccccc3C(=C3CCCCC3)c3ccccc32)cc1 [precursor of 7 (n.d.)]
- ring closure, isolated yield (from Cc1ccc(S(=O)(=O)OC(=C2CCCCC2)c2ccccc2N(CCCCc2ccccc2)S(=O)(=O)c2ccc(C)cc2)cc1, 10-membered ring): 0%

SMILES: Cc1ccc(S(=O)(=O)N2CCCc3ccc(C(F)(F)F)cc3C(=C3CCCCC3)c3ccccc32)cc1 [precursor of 14 (n.d.)]
- ring closure, isolated yield (from Cc1ccc(S(=O)(=O)OC(=C2CCCCC2)c2ccccc2N(CCCc2ccc(C(F)(F)F)cc2)S(=O)(=O)c2ccc(C)cc2)cc1, 9-membered ring): 0%

SMILES: CC(C)=C1c2ccccc2CCN(S(=O)(=O)c2ccc(C)cc2)c2cc(C(F)(F)F)ccc21 [precursor of 17 (n.d., 160 C)]
- ring closure, isolated yield (from CC(C)=C(OS(=O)(=O)c1ccc(C)cc1)c1ccc(C(F)(F)F)cc1N(CCc1ccccc1)S(=O)(=O)c1ccc(C)cc1, 8-membered ring): 0%

SMILES: CC1=C(c2ccccc2)c2ccccc2CCCC1 [precursor of 20 (n.d.)]
- ring closure, isolated yield (from CC(CCCCc1ccccc1)=C(OS(=O)(=O)c1ccc(C)cc1)c1ccccc1, 8-membered ring): 0%

From article PMC10863392
